Experiments:
[1] = tested on: Candida albicans strain CAi-4 spheroplasts; experiment: chitin content of cell wall of regenerating spheroplasts (Calcofluor white); assay type: cell-based; conditions: 3 μg per ml enzyme, 2 hours incubation
Procedure: (§1) […]. […] Chitinase enzyme preparations were added in 3 μg/ml.
In addition, the mouse acidic chitinase and chitotriosidase were both able to digest chitin in the cell wall of regenerating spheroplasts of Candida albicans. The chitin content of the cell wall was determined with the Calcofluor white stain. When regenerating cells were incubated for 2 hours with 3 μg per ml recombinant chitotriosidase or 3 μg per ml recombinant mouse acidic chitinase, the chitin content was reduced by 27% and 33%, respectively.

[2] = tested on: hyphae of Candida albicans; experiment: incubation of hyphae with recombinant AMCase; assay type: cell-based
[3] = specific activity of purified enzyme on 4MU-chitotrioside; assay type: biochemical; conditions: pH 5.2
Procedure: (§2) Chitin affinity chromatography was used to purify the enzyme. Detergent-free extracts of mouse tissues were prepared by homogenization in 10 volumes of potassium phosphate buffer pH 6.5, using an Ultra-turrax and centrifugation for 20 minutes at 15,000×g. The mouse intestine extract was adjusted to pH 5.0 by the addition of citric acid (0.2 M); NaCl was added to a final concentration of 2 M. A chitin column was prepared by mixing 10 grams swollen Sepharose G25 fine (Pharmacia, Uppsala, Sweden) with 300 mg of colloidal chitin (prepared as described by Shimahara et al. (Shimahara et al., 1988), followed by equilibration with phosphate-buffered saline (PBS) containing 2M NaCl. The extracts were applied onto the column with a flow speed of 0.4 ml/minute. After extensive washing, bound chitinase was eluted from the column with 8M urea, which was subsequently removed by dialysis. Protein concentrations were determined according to the method of Lowry et al. (Lowry et al 1951) using BSA as a standard. Fractions containing chitinase activity were subjected to SDS-PAGE and Western blotting as described (Renkema et al., 1995).
The specific activity of the purified enzyme was 3.9 nmol 4-methylumbelliferyl-chitotrioside hydrolyzed per mg per hour at pH 5.2, which is almost identical to that of human chitotriosidase.
as §1

[4] = pH dependence of chitinase activity (McIlvaine buffer, 4-methylumbelliferyl substrates); assay type: biochemical; conditions: McIlvaine buffer range 1.7-8.5
Procedure: Panel A: pH activity profile of the different chitinases. The pH optima were determined by monitoring enzyme activity at the indicated pH in Mcllvaine buffer. Purified human recombinant chitotriosidase (closed lozenge), purified mouse AMCase (closed circle).
(§3) The pH dependence of chitinase activity of AMCase was determined by incubating purified enzyme at a different pH (Mcllvaine buffer range 1.7-8.5) with 4-methylumbelliferyl substrates. Release of the fluorescent 4-metylumbelliferone was monitored fluorometrically (excitation […]).

[5] = assay type: physicochemical; conditions: for enzyme precipitated at 0.5% (w/v) TCA: 0.5% (w/v) trichloroacetic acid
Procedure: Panel C: Precipitation by trichloroacetic acid (TCA). Purified recombinant human chitotriosidase and mouse AMCase were incubated with the indicated percentages of TCA. The amount of remaining enzyme activity after centrifugation is shown as a percentage of initial amounts.
as §3

[6] = tested on: Bovine submaxillary gland mucin; experiment: degradation of mucin, SDS-PAGE and silver staining; assay type: biochemical; conditions: 125 μg mucin, 500 ng enzyme, 0.05M NaAc pH 5.0, overnight 37° C.
Procedure: (§4) FIG. 7. The effect of AMCase on glycoproteins was studied by evaluating the effect of mouse AMCase on mucin, a type of glycoproteins expressed on mucosal surfaces in the airways and gastrointestinal tract. Bovine submaxillary gland mucin (Sigma) 125 μg was dissolved in 40 μl 0.05M NaAc pH 5.0 in the presence or absence of 500 ng mouse AMCase. After overnight incubation at 37° C., the mucin was electrophorized on an SDS-PAGE gel 7.5%, followed by silver staining.
as §4, with “The” for “FIG. 7. The”, “of” for “of mouse”, “glycoprotein” for “type of glycoproteins”, “(7.5% homogeneous,” for “7.5%,”, “staining). As is shown in FIG. 7, the mucin was degraded by treatment with the AMCase.” for “staining.”

[7] = tested on: submaxillary gland mucins; experiment: viscosity and flow rate of mucin solution in vertical glass pipette; assay type: biochemical
Text: The mammalian mucinase, endogenously present at mucosal surfaces in mammals, provides the solution for the above-mentioned problems concerning diseases in which mucus is involved. A mucinase of the invention is capable of cleaving mucus. In one embodiment, a specific mouse (nucleotide sequence SEQ ID NO:3 (see, Table III, below) and amino acid sequence SEQ ID NO:4 (see, Table IV, below)) and human mucinase (nucleotide sequence SEQ ID NO:2 (see, Table II, above) and amino acid sequence SEQ ID NO:1 (see, Table I, above) is provided, called AMCase. It has a catalytically active 39 kDa domain which is connected via a hinge region with a C-terminal mucin-binding domain. To show its mucus-degrading property, we have incubated a mixture of submaxillary gland mucins with recombinant 50 kDa AMCase. The effect of the incubation was examined by analysis with SDS-PAGE and silver staining. […] The flow rate of the mucin solution, as measured in a vertically positioned glass pipette, was increased with almost a factor of 2.

[8] = chitin degradation products by FACE; assay type: biochemical; conditions: FACE analysis
Procedure: FIG. 2. Degradation products with colloidal chitin as substrate. The FACE technique (described in experimental procedures) was used to visualize the cleavage products of recombinant human chitotriosidase and recombinant mouse AMCase using colloidal chitin as substrate. Lane 1, no enzyme added. Lane 2, products formed after incubation with 50 kDa recombinant human chitotriosidase with chitin. Lane 3, products formed with recombinant mouse AMCase and chitin. Lane 4, human chitotriosidase incubated without substrate. Lane 5, mouse AMCase incubated without substrate. Marker lane is indicated with M (sugar polymers are indicated on the right-hand side).
as §1

[9] = binding to chitin particles
Procedure: as §2

[10] = resistance against proteases; assay type: physicochemical
[11] = cited from earlier work
[12] = stability on pre-incubation at acidic or basic pH; assay type: physicochemical; conditions: 30 minutes pre-incubation in McIlvaine buffer
Procedure: Panel B: Effects of acidic pre-incubation. Purified recombinant human chitotriosidase and mouse AMCase were pre-incubated for 30 minutes at the indicated pH in Mcllvaine buffer prior to enzyme activity measurement at the assay pH (see experimental procedures). Activity prior to incubation at the indicated pH is defined as 100%.
as §3

[13] = expression of full-length cDNA in COS-1 cells, chitinolytic activity; assay type: biochemical; conditions: data not shown
Text: These two sequences are most probably splice variants of the human acidic chitinase mRNA.

Q: What does the source list for “mouse AMCase: acidic mammalian chitinase/mucinase of mouse, 50 kDa protein, amino acid sequence SEQ ID NO:4”?
A: chitin content of cell wall reduced by [1]: 33%; effect on hyphae (fungistatic effect) [2]: selective lysis of the growing tip; specific activity of the purified enzyme [3]: 3.9 nmol 4-methylumbelliferyl-chit; specific activity of the purified enzyme ([3]; listed as mouse acidic chitinase): 3.9 nmol 4-methylumbelliferyl-chitotrioside hydrolyzed per mg per hour; less pronounced pH optimum [4]: 4.7 pH; pH optimum (pronounced) [4]: 2.3 pH; enzyme remaining unprecipitated at 2.5% (w/v) TCA [5]: 26%; enzyme precipitated at 0.5% (w/v) TCA [5]: remains in solution; degradation of mucin [6]: degraded substantially; degradation of mucin ([6]; listed as recombinant 50 kDa AMCase): remarkable reduction in size of the mucins; viscosity of the mucin solution after incubation [7]: markedly reduced; increase of flow rate of the mucin solution ([7]; vertically positioned glass pipette): ~2 factor; cleavage products released from chitin [8]: releases mainly chitobioside fragments; binding to chitin particles [9]: high affinity; resistance against proteases [10]: quite resistant against various proteases

Q: With `CC(=O)N[C@@H](CS)C(=O)O` [N-acetylcysteine] as the compound, how does the “mucolytic activity in vitro” value ([11]; in vitro) read?
A: has mucolytic activity in vitro

Q: What about the “mucolytic activity in vivo” value ([11]; in vivo) of the same compound?
A: has not been demonstrated convincingly in vivo

Q: With “chitotriosidase: human phagocyte chitinase, SEQ ID NO:10, used as comparator [reference compound]” as the compound, how does the “chitin content of cell wall reduced by” value [1] read?
A: 27%

Q: What about the “pH optimum (pronounced)” value [4] of the same compound?
A: only a broad pH optimum

Q: And the “effect of pre-incubation at low pH on activity” value [12]?
A: completely inactivated

Q: And the “enzyme precipitated at 0.5% (w/v) TCA” value [5]?
A: 58%

Q: And the “enzyme precipitated at 2.5% (w/v) TCA” value ([5]; 2.5% (w/v) trichloroacetic acid)?
A: all chitotriosidase precipitates

Q: What about the “cleavage products released from chitin” value [8] of the same compound?
A: releases mainly chitobioside fragments

Q: For “human AMCase: human acidic mammalian chitinase/mucinase, amino acid sequence SEQ ID NO:1”, which “chitinolytic activity of expressed protein” value [13] is on record?
A: protein with chitinolytic activity

Source: patent US20040253224A1, “Mammalian mucinase, its recombinant production, and its use in therapy or prophylaxis against diseases in which mucus is involved or infectious diseases” (priority 2001, published 2004)
